Experimental data: publication PMC7822874, “Chemoprotective antimalarials identified through quantitative high-throughput screening of Plasmodium blood and liver stage parasites” (Scientific Reports, 2021)
Where “and” joins values, the source holds several entries; their conditions need not be identical. Equal entries are not always repeated.

Key:
[1] = tested on: T1, Plasmodium falciparum Dd2-attB (parental line), asexual blood stages; test: microbe, parasite or virus in culture; set-up: replicate k of 3 (each line is one of three independent assays; the three lines of one compound and parasite line follow each other); settings: n = 1; for Individual replicates / Log AC50 (M): 72 h; for AC50: Plasmodium falciparum, DD2, 72 h, read-out: Individual replicates / Log AC50 (converted)
T1 construct: Dd2-attB, the isogenic parental line
Outline: (§1)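 Both lines were tested side by side with selected compounds, repeated in three independent assays. Differences between parental and ScDHODH-expressing parasites were then assessed with a two-sided Student's t-test.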

[2] = tested on: T2, Plasmodium falciparum Dd2-attB-ScDHODH (transgenic line expressing yeast DHODH), asexual blood stages; test: organism not typed; set-up: replicate k of 3 (each line is one of three independent assays; the three lines of one compound and parasite line follow each other)
T2 construct: Dd2-attB-ScDHODH, the transgenic line that expresses yeast DHODH
Outline: as §1

[3] = 72 h; n = 1; read-out: Individual replicates / Log AC50 (converted)

Q: With `O=C(NC1=CC(=O)c2ccccc2C1=O)c1ccccc1` [NCGC00357425-01] as the molecule, how does the “Individual replicates / Log AC50 (M)” value [1] read?
A: -5.5986 Log AC50 (M) and -5.7986 Log AC50 (M) and -5.3486 Log AC50 (M)

Q: What about the “Individual replicates / Log AC50 (M)” value ([2]; 72 h, n = 1) of the same molecule?
A: -5.6486 Log AC50 (M) (2×) and -5.2986 Log AC50 (M)

Q: Which results are given for `CC(=O)Nc1cccc(-c2csc(Nc3cc(C)ccn3)n2)c1` [NCGC00357426-01]?
A: Individual replicates / Log AC50 (M) [1]: -4.8486 Log AC50 (M) (2×) and -4.7986 Log AC50 (M); Individual replicates / Log AC50 (M) ([2]; 72 h, n = 1): -4.8486 Log AC50 (M)

Q: `Cn1cnc(-c2nccc3c(O)nc(OCCCC(F)(F)F)nc23)c1` [NCGC00381768-01] was tested. Which “Individual replicates / Log AC50 (M)” value [1] did it give?
A: -4.7486 Log AC50 (M) and -4.7986 Log AC50 (M)

Q: What about the AC50 [1] of the same molecule?
A: 15.9 µM

Q: And the “Individual replicates / Log AC50 (M)” value ([2]; 72 h; n = 1)?
A: -4.7486 Log AC50 (M)

Q: What about the AC50 [2, 3] of the same molecule?
A: 17.8 µM

Q: How did the “Individual replicates / Log AC50 (M)” value [1] turn out when `CN(C)C(=S)SN(C)C(=O)Nc1ccccc1` [NCGC00386444-01] was run?
A: -5.7986 Log AC50 (M)

Q: And the AC50 [1]?
A: 1.78 µM

Q: And the “Individual replicates / Log AC50 (M)” value ([2]; 72 h, n = 1)?
A: -5.7986 Log AC50 (M)

Q: What about the AC50 [2, 3] of the same molecule?
A: 2.25 µM

Q: How did the “Individual replicates / Log AC50 (M)” value [1] turn out when `C/C(=N\NC(=S)N1CCN(c2ccccn2)CC1)c1ccccn1` [NCGC00386445-01] was run?
A: -5.3486 Log AC50 (M)

Q: What about the AC50 [1] of the same molecule?
A: 4.48 µM

Q: And the “Individual replicates / Log AC50 (M)” value ([2]; 72 h; n = 1)?
A: -5.3486 Log AC50 (M)

Q: What about the AC50 [2, 3] of the same molecule?
A: 4.48 µM

Q: Which results are given for `CN(C)c1ccc(-c2nc(-c3ccccc3O)n(Cc3ccccc3)n2)cc1` [NCGC00388637-01]?
A: Individual replicates / Log AC50 (M) [1]: -6.0986 Log AC50 (M); AC50 [1]: 0.797 µM; Individual replicates / Log AC50 (M) ([2]; 72 h, n = 1): -5.6486 Log AC50 (M) and -6.0486 Log AC50 (M) and -6.1486 Log AC50 (M)

Q: For `Cc1ccc(C(CCN2CCCCC2)c2cc3cccc(C(=O)O)c3[nH]2)cc1` (stereo not shown) [NCGC00389137-01], which “Individual replicates / Log AC50 (M)” value [1] is on record?
A: -5.5486 Log AC50 (M) and -5.3986 Log AC50 (M) and -5.1486 Log AC50 (M)

Q: And the “Individual replicates / Log AC50 (M)” value ([2]; 72 h, n = 1)?
A: -5.3486 Log AC50 (M) and -5.0486 Log AC50 (M)

Q: What does the source list for `c1ccc(CCn2nc(-c3ccccn3)nc2CCCN2CCCCC2)cc1` [NCGC00389173-01]?
A: Individual replicates / Log AC50 (M) [1]: -5.2986 Log AC50 (M) and -5.0986 Log AC50 (M) and -5.4486 Log AC50 (M); Individual replicates / Log AC50 (M) ([2]; 72 h, n = 1): -5.2486 Log AC50 (M) and -5.3986 Log AC50 (M) and -5.0486 Log AC50 (M)

Q: Which “Individual replicates / Log AC50 (M)” value [1] does the source give for `Cc1ccc(C(CCN2CCCCC2)c2cc3cccc(C(N)=O)c3[nH]2)cc1` (stereo not shown) [NCGC00389183-01] here?
A: -5.2486 Log AC50 (M)

Q: And the AC50 [1]?
A: 5.03 µM

Q: And the “Individual replicates / Log AC50 (M)” value ([2]; 72 h, n = 1)?
A: -5.3486 Log AC50 (M) and -5.0986 Log AC50 (M)

Q: And the AC50 [2, 3]?
A: 5.03 µM

Q: How did the “Individual replicates / Log AC50 (M)” value [1] turn out when `O=C(O)c1ccc(N(CCN2CCC(F)(F)CC2)c2ccc(F)cc2)cn1` [NCGC00390011-01] was run?
A: -4.7486 Log AC50 (M)

Q: What about the AC50 [1] of the same molecule?
A: 20 µM

Q: What about the AC50 [2, 3] of the same molecule?
A: 17.8 µM

Q: For `c1ccc(CCn2nc(-c3cnccn3)nc2CCCN2CCCCC2)cc1` [NCGC00390064-01], which “Individual replicates / Log AC50 (M)” value [1] is on record?
A: -4.9986 Log AC50 (M) and -5.1486 Log AC50 (M) and -4.8486 Log AC50 (M)

Q: And the “Individual replicates / Log AC50 (M)” value ([2]; 72 h, n = 1)?
A: -4.7986 Log AC50 (M) and -5.0986 Log AC50 (M) and -4.7486 Log AC50 (M)

Q: For `CN(C)CCn1nc(-c2ccccc2O)nc1-c1ccccc1` [NCGC00390082-01], which “Individual replicates / Log AC50 (M)” value [1] is on record?
A: -4.7486 Log AC50 (M) and -4.8486 Log AC50 (M)

Q: What about the AC50 [1] of the same molecule?
A: 14.2 µM

Q: What about the “Individual replicates / Log AC50 (M)” value ([2]; 72 h, n = 1) of the same molecule?
A: -4.7986 Log AC50 (M)

Q: What about the AC50 [2, 3] of the same molecule?
A: 12.6 µM

Q: For `CN(C)CCn1nc(-c2ccccc2)nc1-c1ccccc1O` [NCGC00390083-01], which “Individual replicates / Log AC50 (M)” value [1] is on record?
A: -5.1486 Log AC50 (M) and -5.1986 Log AC50 (M)

Q: And the AC50 [1]?
A: 7.1 µM

Q: What about the “Individual replicates / Log AC50 (M)” value ([2]; 72 h, n = 1) of the same molecule?
A: -5.1486 Log AC50 (M)

Q: And the AC50 [2, 3]?
A: 7.97 µM

Q: Which “Individual replicates / Log AC50 (M)” value [1] does the source give for `Cc1nn2c(c1-c1ccccc1-c1ccccc1)N(CC1CC1)CCC2` [NCGC00420435-02] here?
A: -4.7986 Log AC50 (M) and -4.8486 Log AC50 (M)

Q: And the AC50 [1]?
A: 14.2 µM

Q: What about the “Individual replicates / Log AC50 (M)” value ([2]; 72 h, n = 1) of the same molecule?
A: -4.7486 Log AC50 (M) and -4.8486 Log AC50 (M)

Q: And the AC50 [2, 3]?
A: 15.9 µM

Q: What does the source list for `Cc1nn2c(c1-c1ccccc1-c1ccccc1)N(Cc1ccc(C(=O)O)s1)CCC2` [NCGC00420478-02]?
A: Individual replicates / Log AC50 (M) [1]: -4.8986 Log AC50 (M) and -4.7986 Log AC50 (M); AC50 [1]: 17.8 µM; Individual replicates / Log AC50 (M) ([2]; 72 h, n = 1): -4.7486 Log AC50 (M); AC50 [2, 3]: 14.2 µM

Q: `C/C=C(\C#N)C(=O)N1CCCN(c2cc(NCCC(=O)OC)nc(-c3ccccn3)n2)CC1` [NCGC00420778-01] was tested. Which AC50 [1] did it give?
A: 15.9 µM

Q: What about the AC50 [2, 3] of the same molecule?
A: 14.2 µM

Q: For `CCO/C=C(\C#N)C(=O)N1CCCN(c2cc(NCCC(=O)OC)nc(-c3ccccn3)n2)CC1` [NCGC00420783-01], which “Individual replicates / Log AC50 (M)” value [1] is on record?
A: -5.0986 Log AC50 (M) and -5.0486 Log AC50 (M)

Q: What about the AC50 [1] of the same molecule?
A: 8.94 µM

Q: What about the “Individual replicates / Log AC50 (M)” value ([2]; 72 h, n = 1) of the same molecule?
A: -5.0486 Log AC50 (M) and -4.8986 Log AC50 (M)

Q: And the AC50 [2, 3]?
A: 10 µM

Q: Which “Individual replicates / Log AC50 (M)” value [1] does the source give for `COC(=O)c1ccnc2cc(C(OCCN3CCCCC3)c3ccccc3Cl)[nH]c12` (stereo not shown) [NCGC00420857-01] here?
A: -5.2986 Log AC50 (M) and -5.1986 Log AC50 (M)

Q: What about the AC50 [1] of the same molecule?
A: 4.48 µM

Q: And the “Individual replicates / Log AC50 (M)” value ([2]; 72 h, n = 1)?
A: -5.0986 Log AC50 (M)

Q: What about the AC50 [2, 3] of the same molecule?
A: 5.03 µM
